Source: the supplement of paper PMC10307832

Assays:
Experiment in all cases: relative viability (nuclei count vs DMSO), 5 days (fraction); higher = more cells survive
CAL-12T = test system: CAL-12T
Outline: (§1)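 Relative viability was taken as the ratio of nuclei in treated wells to nuclei in vehicle wells. Lung cancer cell lines in 1536-well plates received compounds by pin tool one day after seeding, either one drug alone or a fixed anchor-drug dose plus five library-drug doses (not always all listed) in √10 steps. Nuclei were counted on 4× images after 5 days of treatment, and values are medians of duplicate plates.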

EKVX = test system: EKVX
Outline: as §1

H3255 = test system: H3255
Outline: as §1

HCC-15 = test system: HCC-15
Outline: as §1

HCC-827 = test system: HCC-827
Outline: as §1

LCLC-97TM1 = test system: LCLC-97TM1
Outline: as §1

LK-2 = test system: LK-2
Outline: as §1

NCI-H1355 = test system: NCI-H1355
Outline: as §1

NCI-H1734 = test system: NCI-H1734
Outline: as §1

NCI-H1755 = test system: NCI-H1755
Outline: as §1

NCI-H1975 = test system: NCI-H1975
Outline: as §1

NCI-H2342 = test system: NCI-H2342
Outline: as §1

NCI-H2405 = test system: NCI-H2405
Outline: as §1

NCI-H322M = test system: NCI-H322M
Outline: as §1

PC-14 = test system: PC-14
Outline: as §1

PC-3 [JPC-3] = test system: PC-3 [JPC-3]
Outline: as §1

RERF-LC-KJ = test system: RERF-LC-KJ
Outline: as §1

COc1cc2nccc(Oc3ccc(NC(=O)Nc4cc(C)on4)c(Cl)c3)c2cc1OC [Tivozanib] + NC(=O)Nc1cc(-c2cccc(F)c2)sc1C(=O)N[C@H]1CCCNC1 [AZD7762] (partner 0.2 µM)
relative viability (CAL-12T; first compound 0.005 µM): 0.483
relative viability (CAL-12T; first compound 0.01581 µM): 0.584
relative viability (CAL-12T; first compound 0.05 µM): 0.668
relative viability (CAL-12T; first compound 0.1581 µM): 0.722
relative viability (CAL-12T; first compound 0.5 µM): 0.71
relative viability (EKVX; first compound 0.005 µM): 0.592
relative viability (EKVX; first compound 0.01581 µM): 0.695
relative viability (EKVX; first compound 0.05 µM): 0.76
relative viability (EKVX; first compound 0.1581 µM): 0.69
relative viability (EKVX; first compound 0.5 µM): 0.689
relative viability (H3255; first compound 0.005 µM): 0.672
relative viability (H3255; first compound 0.01581 µM): 0.86
relative viability (H3255; first compound 0.05 µM): 0.961
relative viability (H3255; first compound 0.1581 µM): 0.735
relative viability (H3255; first compound 0.5 µM): 0.861
relative viability (HCC-15; first compound 0.005 µM): 1.18
relative viability (HCC-15; first compound 0.01581 µM): 1.28
relative viability (HCC-15; first compound 0.05 µM): 1.34
relative viability (HCC-15; first compound 0.1581 µM): 1.29
relative viability (HCC-15; first compound 0.5 µM): 1.33
relative viability (HCC-827; first compound 0.005 µM): 0.202
relative viability (HCC-827; first compound 0.01581 µM): 0.25
relative viability (HCC-827; first compound 0.05 µM): 0.314
relative viability (HCC-827; first compound 0.1581 µM): 0.185
relative viability (HCC-827; first compound 0.5 µM): 0.194
relative viability (LCLC-97TM1; first compound 0.005 µM): 0.128
relative viability (LCLC-97TM1; first compound 0.01581 µM): 0.274
relative viability (LCLC-97TM1; first compound 0.05 µM): 0.343
relative viability (LCLC-97TM1; first compound 0.1581 µM): 0.208
relative viability (LCLC-97TM1; first compound 0.5 µM): 0.262
relative viability (LK-2; first compound 0.005 µM): 0.512
relative viability (LK-2; first compound 0.01581 µM): 0.278
relative viability (LK-2; first compound 0.05 µM): 0.494
relative viability (LK-2; first compound 0.1581 µM): 0.252
relative viability (LK-2; first compound 0.5 µM): 0.357
relative viability (NCI-H1355; first compound 0.005 µM): 0.737
relative viability (NCI-H1355; first compound 0.01581 µM): 0.731
relative viability (NCI-H1355; first compound 0.05 µM): 0.799
relative viability (NCI-H1355; first compound 0.1581 µM): 0.606
relative viability (NCI-H1355; first compound 0.5 µM): 0.716
relative viability (NCI-H1734; first compound 0.005 µM): 0.515
relative viability (NCI-H1734; first compound 0.01581 µM): 0.524
relative viability (NCI-H1734; first compound 0.05 µM): 0.523
relative viability (NCI-H1734; first compound 0.1581 µM): 0.408
relative viability (NCI-H1734; first compound 0.5 µM): 0.451
relative viability (NCI-H1755; first compound 0.005 µM): 0.441
relative viability (NCI-H1755; first compound 0.01581 µM): 0.428
relative viability (NCI-H1755; first compound 0.05 µM): 0.444
relative viability (NCI-H1755; first compound 0.1581 µM): 0.457
relative viability (NCI-H1755; first compound 0.5 µM): 0.411
relative viability (NCI-H1975; first compound 0.005 µM): 0.594
relative viability (NCI-H1975; first compound 0.01581 µM): 0.742
relative viability (NCI-H1975; first compound 0.05 µM): 0.746
relative viability (NCI-H1975; first compound 0.1581 µM): 0.836
relative viability (NCI-H1975; first compound 0.5 µM): 0.595
relative viability (NCI-H2342; first compound 0.005 µM): 0.492
relative viability (NCI-H2342; first compound 0.01581 µM): 0.431
relative viability (NCI-H2342; first compound 0.05 µM): 0.609
relative viability (NCI-H2342; first compound 0.5 µM): 0.414
relative viability (NCI-H2405; first compound 0.005 µM): 0.759
relative viability (NCI-H2405; first compound 0.01581 µM): 0.893
relative viability (NCI-H2405; first compound 0.05 µM): 0.735
relative viability (NCI-H2405; first compound 0.1581 µM): 0.905
relative viability (NCI-H2405; first compound 0.5 µM): 0.518
relative viability (NCI-H322M; first compound 0.005 µM): 0.562
relative viability (NCI-H322M; first compound 0.01581 µM): 0.767
relative viability (NCI-H322M; first compound 0.05 µM): 0.628
relative viability (NCI-H322M; first compound 0.1581 µM): 0.443
relative viability (NCI-H322M; first compound 0.5 µM): 0.586
relative viability (PC-14; first compound 0.005 µM): 0.333
relative viability (PC-14; first compound 0.01581 µM): 0.338
relative viability (PC-14; first compound 0.05 µM): 0.369
relative viability (PC-14; first compound 0.1581 µM): 0.385
relative viability (PC-14; first compound 0.5 µM): 0.375
relative viability (PC-3 [JPC-3]; first compound 0.01581 µM): 0.857
relative viability (PC-3 [JPC-3]; first compound 0.05 µM): 0.927
relative viability (PC-3 [JPC-3]; first compound 0.1581 µM): 0.741
relative viability (PC-3 [JPC-3]; first compound 0.5 µM): 0.8
relative viability (RERF-LC-KJ; first compound 0.005 µM): 0.701
relative viability (RERF-LC-KJ; first compound 0.01581 µM): 0.925
relative viability (RERF-LC-KJ; first compound 0.05 µM): 1.07
relative viability (RERF-LC-KJ; first compound 0.1581 µM): 0.659
relative viability (RERF-LC-KJ; first compound 0.5 µM): 0.892

CC(=O)O[C@@]12CO[C@@H]1C[C@H](O)[C@@]1(C)C(=O)[C@H](O)C3=C(C)[C@@H](OC(=O)[C@H](O)[C@@H](NC(=O)OC(C)(C)C)c4ccccc4)C[C@@](O)([C@@H](OC(=O)c4ccccc4)[C@H]21)C3(C)C [Docetaxel] + NC(=O)Nc1cc(-c2cccc(F)c2)sc1C(=O)N[C@H]1CCCNC1 [AZD7762] (partner 0.2 µM)
relative viability (CAL-12T; first compound 0.0002 µM): 0.595
relative viability (CAL-12T; first compound 0.000632 µM): 0.452
relative viability (CAL-12T; first compound 0.002 µM): 0.491
relative viability (CAL-12T; first compound 0.02 µM): 0.176
relative viability (EKVX; first compound 0.0002 µM): 0.736
relative viability (EKVX; first compound 0.000632 µM): 0.638
relative viability (EKVX; first compound 0.002 µM): 0.407
relative viability (EKVX; first compound 0.006325 µM): 0.249
relative viability (EKVX; first compound 0.02 µM): 0.132
relative viability (H3255; first compound 0.0002 µM): 0.749
relative viability (H3255; first compound 0.000632 µM): 0.859
relative viability (H3255; first compound 0.002 µM): 0.446
relative viability (H3255; first compound 0.006325 µM): 0.288
relative viability (H3255; first compound 0.02 µM): 0.288
relative viability (HCC-15; first compound 0.0002 µM): 1.18
relative viability (HCC-15; first compound 0.000632 µM): 1.02
relative viability (HCC-15; first compound 0.002 µM): 0.433
relative viability (HCC-15; first compound 0.006325 µM): 0.289
relative viability (HCC-15; first compound 0.02 µM): 0.256
relative viability (HCC-827; first compound 0.0002 µM): 0.154
relative viability (HCC-827; first compound 0.000632 µM): 0.239
relative viability (HCC-827; first compound 0.002 µM): 0.165
relative viability (HCC-827; first compound 0.006325 µM): 0.165
relative viability (HCC-827; first compound 0.02 µM): 0.142
relative viability (LCLC-97TM1; first compound 0.0002 µM): 0.194
relative viability (LCLC-97TM1; first compound 0.000632 µM): 0.221
relative viability (LCLC-97TM1; first compound 0.002 µM): 0.078
relative viability (LCLC-97TM1; first compound 0.006325 µM): 0.0825
relative viability (LCLC-97TM1; first compound 0.02 µM): 0.0475
relative viability (LK-2; first compound 0.0002 µM): 0.337
relative viability (LK-2; first compound 0.000632 µM): 0.277
relative viability (LK-2; first compound 0.002 µM): 0.113
relative viability (LK-2; first compound 0.006325 µM): 0.112
relative viability (LK-2; first compound 0.02 µM): 0.0712
relative viability (NCI-H1355; first compound 0.0002 µM): 0.698
relative viability (NCI-H1355; first compound 0.000632 µM): 0.758
relative viability (NCI-H1355; first compound 0.002 µM): 0.411
relative viability (NCI-H1355; first compound 0.02 µM): 0.191
relative viability (NCI-H1734; first compound 0.0002 µM): 0.449
relative viability (NCI-H1734; first compound 0.000632 µM): 0.384
relative viability (NCI-H1734; first compound 0.002 µM): 0.199
relative viability (NCI-H1734; first compound 0.006325 µM): 0.222
relative viability (NCI-H1734; first compound 0.02 µM): 0.164
relative viability (NCI-H1755; first compound 0.0002 µM): 0.488
relative viability (NCI-H1755; first compound 0.000632 µM): 0.396
relative viability (NCI-H1755; first compound 0.002 µM): 0.324
relative viability (NCI-H1755; first compound 0.006325 µM): 0.401
relative viability (NCI-H1755; first compound 0.02 µM): 0.352
relative viability (NCI-H1975; first compound 0.0002 µM): 0.721
relative viability (NCI-H1975; first compound 0.000632 µM): 0.601
relative viability (NCI-H1975; first compound 0.002 µM): 0.389
relative viability (NCI-H1975; first compound 0.006325 µM): 0.24
relative viability (NCI-H1975; first compound 0.02 µM): 0.169
relative viability (NCI-H2342; first compound 0.0002 µM): 0.46
relative viability (NCI-H2342; first compound 0.000632 µM): 0.56
relative viability (NCI-H2342; first compound 0.002 µM): 0.405
relative viability (NCI-H2342; first compound 0.006325 µM): 0.41
relative viability (NCI-H2342; first compound 0.02 µM): 0.363
relative viability (NCI-H2405; first compound 0.0002 µM): 0.742
relative viability (NCI-H2405; first compound 0.000632 µM): 0.582
relative viability (NCI-H2405; first compound 0.002 µM): 0.46
relative viability (NCI-H2405; first compound 0.006325 µM): 0.349
relative viability (NCI-H2405; first compound 0.02 µM): 0.248
relative viability (NCI-H322M; first compound 0.0002 µM): 0.611
relative viability (NCI-H322M; first compound 0.000632 µM): 0.459
relative viability (NCI-H322M; first compound 0.002 µM): 0.451
relative viability (NCI-H322M; first compound 0.006325 µM): 0.509
relative viability (NCI-H322M; first compound 0.02 µM): 0.39
relative viability (PC-14; first compound 0.0002 µM): 0.322
relative viability (PC-14; first compound 0.000632 µM): 0.337
relative viability (PC-14; first compound 0.002 µM): 0.132
relative viability (PC-14; first compound 0.006325 µM): 0.0705
relative viability (PC-14; first compound 0.02 µM): 0.0363
relative viability (PC-3 [JPC-3]; first compound 0.0002 µM): 0.761
relative viability (PC-3 [JPC-3]; first compound 0.000632 µM): 0.69
relative viability (PC-3 [JPC-3]; first compound 0.002 µM): 0.441
relative viability (PC-3 [JPC-3]; first compound 0.006325 µM): 0.267
relative viability (PC-3 [JPC-3]; first compound 0.02 µM): 0.169
relative viability (RERF-LC-KJ; first compound 0.0002 µM): 0.5
relative viability (RERF-LC-KJ; first compound 0.000632 µM): 1.01
relative viability (RERF-LC-KJ; first compound 0.002 µM): 0.363
relative viability (RERF-LC-KJ; first compound 0.006325 µM): 0.196
relative viability (RERF-LC-KJ; first compound 0.02 µM): 0.128
